{"source": "patent US10391070B2", "about": "“Compositions and methods for treating neurological diseases or injury” (MUSC FOUNDATION FOR RESEARCH DEVELOPMENT, priority 2012, dated 2019)", "key": {"[1]": {"tested_on": "maximal electroshock-induced seizures", "assay": "Maximal electroshock test", "format": "in vivo, mouse", "details": "mice; for animals protected/animals tested, 0.25 hr / animals protected/animals tested, 0.5 hr / animals protected/animals tested, 1.0 hr / animals protected/animals tested, 2.0 hr / animals protected/animals tested, 4.0 hr: 100 mg/kg i.p., maximal electroshock", "protocol": "Mouse studies were performed by NIH Anticonvulsant Screening Program at the National Institute of Neurological Disorders and Stroke (Stables and Kupferberg, 1997) according to the established NIH experimental procedures outlined below. Compounds were delivered into mice by i.p. injection at a dose of 100 mg/kg in sterile 5% DMSO, 95% Neobee (Josey et al., 2013). One of four methods for seizure induction was subsequently administered to mice at 0.25, 0.5, 1, 2 and 4 h after treatment with compound. (1) Subcutaneous PTZ seizure threshold test. PTZ was administered at a concentration of 85 mg/kg, into the loose fold of skin in the midline of the neck. […] (2) Maximal electroshock test. 60 Hz of 50 mA alternating current was delivered for 0.2 s by corneal electrodes. Mice were considered protected from seizures when the hindlimb tonic extensor was absent (White et al., 1995). (3) Minimal clonic seizure (6 Hz) test. 6 Hz of 32 mA or 44 mA alternating current was delivered for 3 s by corneal electrodes to elicit a psychomotor seizure. Mice were considered protected from seizures when the automatistic behaviors were absent (Barton et al., 2001). (4) Corneal kindled mouse model. Mice were kindled electrically with a 3 s stimulation, 8 mA, 60 Hz, and corneal electrodes to a criterion of 10 consecutive Stage 5 seizures (facial clonus and head nodding progressing to forelimb clonus, and finally rearing and falling accompanied by a generalized clonic seizure as described by Racine, 1972). Animals generally reach Stage 5 after twice daily stimulation for 8 days. With continued stimulation once a day, animals usually progressed to a reproducible Stage 5 after 10-14 additional days. At least 72 hours after the mice were kindled, the test substance was administered i.p. and each animal was given the electrical stimulus indicated above. […] Treated animals not displaying a Stage 4 or 5 seizure were considered protected.\nThe data for each treatment is represented as the number of animals protected/number of animals tested.\nThe maximal electroshock-induced seizures (MES) test is a model for generalized tonic-clonic seizures and provides an indication of a compound's ability to prevent seizure spread when all neuronal circuits in the brain are maximally active. These seizures are highly reproducible and are electrophysiologically consistent with human seizures. An animal is considered “protected” from MES-induced seizures based on abolition of the hindlimb tonic extensor component of the seizure."}, "[2]": {"assay": "Antioxidant activity assay (DPPH free radical scavenging)", "details": "20 μM, 100 μM DPPH in methanol", "protocol": "Antioxidant activity of various reagents was assayed as previously described by monitoring the disappearance of the optical absorbance of the stable-free radical DPPH on reaction with test compounds (Blois, 1958). The rate of the reaction represents the antioxidant potency of test agents. The known free radical scavenger Trolox and ascorbic acid were used as positive controls. Briefly, 10 μL of test reagents at final concentrations of 20 μM were added to 200 μL of 100 μM DPPH in methanol. Optical absorbance of DPPH at 517 nm was immediately monitored for 10 min."}, "[3]": {"tested_on": "HT22 cells", "assay": "Intracellular ROS measurement (Rho123, CM-H2DCFDA)", "format": "cell-based, mouse", "details": "HT22, 10 mM glutamate 8 hrs, 250 nM", "protocol": "Intracellular generation of ROS was evaluated by spectrofluorometry using the membrane-permeable compound dihydrorhodamine 123 (Rho123; Invitrogen), and images were collected using 5-(and -6)-chloromethyl-2′,7′-dichlorodihydrofluorescein diacetate, acetyl ester (CM-H2DCFDA; Invitrogen). Briefly, HT-22 cells were seeded onto black walled 96-well plates at 5.0×10^3 cells per well in 75 μL of medium and maintained at 37° C. in 5% CO2 overnight prior to the initiation of experimental treatments. Cells were subsequently treated with 25 μL of medium containing glutamate (monosodium glutamate, Sigma, 1 M stock concentration in media, to achieve a final concentration of 10 mM) plus inhibitors (stock in DMSO) and maintained at 37° C. in 5% CO2. After 8 hrs, Rho123 (5 μM), CM-H2DCFDA (1 μM), or MitoSox (5 μM) and Mitotracker DR (10 nM) was added to achieve the indicated final concentrations. Cells were allowed to incubate for 20 minutes and then washed twice with Hanks Balanced Salt Solution (HBSS; Hyclone; CaCl2 1.26 mM, MgCl2-6H2O 0.493 mM, MgSO4-7H2O 0.407 mM, KCl 5.33 mM, KH2PO4 0.441 mM, NaHCO3 4.17 mM, NaCl 137.93 mM, Na2HPO4 0.338 mM, D-Glucose 5.56 mM), with a final addition of 100 μL of HBSS in which the cells were visualized. Fluorescence of the oxidized Rho123 was measured using a Fluoroskan Ascent spectrofluorometer (Labsystems). Peak excitation and emission wavelengths were 500 and 536, respectively. For fluorescent imaging of the oxidation product of CM-H2DCFDA, cells were immediately visualized using an InCell 2000 Analyzer (GE) with a 40× objective and a FITC excitation/emission filter set. Image processing was performed using ImageJ, and for all images, the microscope and image processing settings, such as levels, brightness, contrast, and exposure time were held constant across all treatment conditions."}, "[4]": {"tested_on": "HT22 cells", "assay": "Mitochondrial morphology and superoxide generation (MitoSOX, Mitotracker)", "format": "cell-based, mouse", "details": "HT22, high extracellular glutamate, co-treatment", "protocol": "In order to evaluate the source of the ROS generation, fluorescence microscopy was used to image HT22 using the fluorogenic dyes Mitotracker Deep Red (DR) and MitoSOX Red (Invitrogen). Mitotracker DR is a cell permeant dye that accumulates in active, polarized mitochondria. […] Briefly, HT22 cells were seeded onto black walled 96-well plates at 5.0×10^3 cells per well in 75 μL of medium and maintained at 37° C. in 5% CO2 overnight prior to the initiation of experimental treatments. Cells were subsequently treated with 25 μL of medium containing glutamate (monosodium glutamate, Sigma-Aldrich, 1 M stock concentration in media, to achieve a final concentration of 10 mM) plus inhibitors (stock in DMSO) and maintained at 37° C. in 5% CO2. After 8 hrs, MitoSOX Red (5 μM) and Mitotracker DR (10 nM) were added to achieve the indicated final concentrations. Cells were allowed to incubate for 20 minutes and then washed twice with Hanks Balanced Salt Solution (HBSS; Hyclone; CaCl2 1.26 mM, MgCl2-6H2O 0.493 mM, MgSO4-7H2O 0.407 mM, KCl 5.33 mM, KH2PO4 0.441 mM, NaHCO3 4.17 mM, NaCl 137.93 mM, Na2HPO4 0.338 mM, D-Glucose 5.56 mM), with a final addition of 100 μL of HBSS in which the cells were visualized. Cells were immediately visualized using an InCell 2000 Analyzer (GE) with a 40× objective and a Cy5/Cy5 excitation/emission filter set for Mitotracker DR and a YFP/Cy3 filter set for MitoSOX Red. Image processing was performed using ImageJ, and for all images, the microscope and image processing settings, such as levels, brightness, contrast, and exposure time were held constant across all treatment conditions."}}, "data": [{"molecule": "C#CCNC1=CC(=O)c2ccccc2C1=O", "note": "[Compound 2h, 2-(prop-2-yn-1-ylamino)naphthalene-1,4-dione]", "values": [{"measurement": "anticonvulsant activity in maximal electroshock test", "setting": "[1]", "result": "limited anticonvulsant activity"}, {"measurement": "animals protected/animals tested, 0.25 hr", "setting": "[1]", "result": "0/4"}, {"measurement": "animals protected/animals tested, 0.5 hr", "setting": "[1]", "result": "0/4"}, {"measurement": "animals protected/animals tested, 1.0 hr", "setting": "[1]", "result": "0/4"}, {"measurement": "animals protected/animals tested, 2.0 hr", "setting": "[1]", "result": "1/4"}, {"measurement": "animals protected/animals tested, 4.0 hr", "setting": "[1]", "result": "1/4"}]}, {"molecule": "O=C1C=C(NCc2ccccc2)C(=O)c2ccccc21", "note": "[Compound 2j, 2-(benzylamino)naphthalene-1,4-dione]", "values": [{"measurement": "free radical scavenging capacity (DPPH absorbance)", "setting": "[2]", "result": "did not show direct antioxidant capacity"}, {"measurement": "ROS accumulation (Rho123)", "setting": "[3]", "result": "prevent the accumulation of ROS"}, {"measurement": "mitochondrial superoxide generation and mitochondrial fragmentation", "setting": "[4]", "result": "prevented these events"}, {"measurement": "anticonvulsant activity in maximal electroshock test", "setting": "[1]", "result": "limited anticonvulsant activity"}, {"measurement": "animals protected/animals tested, 0.25 hr", "setting": "[1]", "result": "0/4"}, {"measurement": "animals protected/animals tested, 0.5 hr", "setting": "[1]", "result": "0/4"}, {"measurement": "animals protected/animals tested, 1.0 hr", "setting": "[1]", "result": "0/4"}, {"measurement": "animals protected/animals tested, 2.0 hr", "setting": "[1]", "result": "2/4"}, {"measurement": "animals protected/animals tested, 4.0 hr", "setting": "[1]", "result": "0/4"}]}, {"molecule": "O=C1C=C(NCc2cccc(Cl)c2)C(=O)c2ccccc21", "note": "[Compound 2q, 2-((3-chlorobenzyl)amino)naphthalene-1,4-dione]", "values": [{"measurement": "free radical scavenging capacity (DPPH absorbance)", "setting": "[2]", "result": "did not show direct antioxidant capacity"}, {"measurement": "ROS accumulation (Rho123)", "setting": "[3]", "result": "prevent the accumulation of ROS"}, {"measurement": "mitochondrial superoxide generation and mitochondrial fragmentation", "setting": "[4]", "result": "prevented these events"}, {"measurement": "animals protected/animals tested, 0.25 hr", "setting": "[1]", "result": "0/4"}, {"measurement": "animals protected/animals tested, 0.5 hr", "setting": "[1]", "result": "0/4"}, {"measurement": "animals protected/animals tested, 1.0 hr", "setting": "[1]", "result": "0/4"}, {"measurement": "animals protected/animals tested, 2.0 hr", "setting": "[1]", "result": "0/4"}, {"measurement": "animals protected/animals tested, 4.0 hr", "setting": "[1]", "result": "0/4"}]}, {"molecule": "menaquinones [VK2, reference compound]", "values": [{"measurement": "free radical scavenging capacity (DPPH absorbance)", "setting": "[2]", "result": "did not show direct antioxidant capacity"}, {"measurement": "ROS accumulation (Rho123)", "setting": "[3]", "result": "less effective"}, {"measurement": "mitochondrial superoxide generation and mitochondrial fragmentation", "setting": "[4]", "result": "prevented these events"}]}]}
